The values below come from patent US9480675B2, “Method for increasing muscle growth by blocking sirtuin activity” (THE REGENTS OF THE UNIVERSITY OF CALIFORNIA, priority 2013, dated 2016).

This experiment concerns wild type mice. Put plainly: 14 days of overload (synergist ablation of GTN and SOL) with daily injection of SIRT1 inhibitor; plantaris muscle hypertrophy. It is filed as in vivo. An excerpt: The plantaris (PLN) muscle in test subjects was overloaded by removal of the gastrocnemius (GTN) and soleus (SOL) muscles, termed synergist ablation. Briefly, test animals were anaesthetized and the area above the incision shaved and sterilized. The SOL and GTN were isolated and severed at the Achilles tendon. The complete SOL and the distal two thirds of the GTN were removed leaving the PLN muscle and their blood and nerve supply intact. The overlying skin was sutured with 6-0 vicryl and the animal was then given the analgesic and moved to a temperature-controlled environment to recover. […] Animals were monitored on a daily basis for signs of pain or post-operative infection. […] On the day of collection, animals were anaesthetized and overloaded and contralateral control muscles were rapidly removed, rinsed in PBS, all connective/scar tissue was removed using a dissection microscope, then the muscles were snap frozen in liquid nitrogen, and stored at −80° C. until processed.
To determine whether the effect of SIRT1 on overload-induced muscle hypertrophy required genetic ablation or whether pharmacological ablation of SIRT1 activity could mimic the effect of the knockout, GTN and SOL muscles of wild type mice were removed and half of the mice received daily injections of the SIRT1 inhibitor Splitomycin. There were 14 days of overload performed in wild type mice concurrent with daily injection of either saline (CON) or Splitomycin (Split).

For the compound `O=C1CCc2c(ccc3ccccc23)O1` [Splitomycin], the “effectiveness of therapeutic dose (in words)” value (25 mg/kg body weight per day) is reported as “effective”. In addition, for the setting “14 days of daily injection”, the “effect on basal muscle mass” value is given as “without affecting basal muscle mass”. Besides, the “effect on muscle hypertrophy (in words)” value (wild type mice, 14 days of overload, daily injection, saline (CON) vs Splitomycin (Split), FIG. 6) is listed as “increases muscle hypertrophy”. For the setting “wild type mice, 14 days of overload, daily injection, versus saline/vehicle (FIG. 6)”, the “more muscle hypertrophy than vehicle (saline) injection” value was found to be 65%.
